We go through 5 molecules from PubChem BioAssay AID1259407 (Chemical Carcinogenesis Research Information System (CCRIS), 2018).

The series has as its system CCRIS mutagenicity, Ames/micronucleus/aberration tests. Nature of the series: CCRIS mutagenicity studies.
Where [1] appears, read: Test System: AMES SALMONELLA TYPHIMURIUM, Strain/Indicator: TA98, Metabolic Activation: NONE, Method: STANDARD PLATE.
Where [2] appears, read: Test System: AMES SALMONELLA TYPHIMURIUM, Strain/Indicator: TA98, Metabolic Activation: RAT, LIVER, S-9, AROCLOR 1254, Method: STANDARD PLATE.
The mark [3] stands for this setting: Test System: AMES SALMONELLA TYPHIMURIUM, Strain/Indicator: TA100, Metabolic Activation: NONE, Method: STANDARD PLATE.
Setting [4] is: Test System: AMES SALMONELLA TYPHIMURIUM, Strain/Indicator: TA100, Metabolic Activation: RAT, LIVER, S-9, AROCLOR 1254, Method: STANDARD PLATE.

Calls of active or inactive are those of the source. How the calls were made is not given here.

In the case of `CCCC(=O)Nc1ccc(OCC(O)CNC(C)C)c(C(C)=O)c1` (configuration not stated), the mutagenic call runs as follows: (Test System: AMES SALMONELLA TYPHIMURIUM, Strain/Indicator: TA98, Metabolic Activation: NONE) “inactive; negative”; under setting [1], “inactive; negative”; (Test System: AMES SALMONELLA TYPHIMURIUM, Strain/Indicator: TA98, Metabolic Activation: RAT, LIVER, S-9, AROCLOR 1254) “inactive; negative”; under setting [2], “inactive; negative”; (Test System: AMES SALMONELLA TYPHIMURIUM, Strain/Indicator: TA100, Metabolic Activation: NONE) “inactive; negative”; under setting [3], “inactive; negative”. In addition, the mutagenic call is, setting by setting: (Test System: AMES SALMONELLA TYPHIMURIUM, Strain/Indicator: TA100, Metabolic Activation: RAT, LIVER, S-9, AROCLOR 1254) “inactive; negative”; under setting [4], “inactive; negative”; (Test System: AMES SALMONELLA TYPHIMURIUM, Strain/Indicator: TA1535, Metabolic Activation: NONE) “inactive; negative”; (Test System: AMES SALMONELLA TYPHIMURIUM, Strain/Indicator: TA1535, Metabolic Activation: RAT, LIVER, S-9, AROCLOR 1254) “inactive; negative”; (Test System: AMES SALMONELLA TYPHIMURIUM, Strain/Indicator: TA1537, Metabolic Activation: NONE) “inactive; negative”; (Test System: AMES SALMONELLA TYPHIMURIUM, Strain/Indicator: TA1537, Metabolic Activation: RAT, LIVER, S-9, AROCLOR 1254) “inactive; negative”.
Take `CC(C)=CCc1ccc(O)c2c(=O)c3c(O)c4c(cc3oc12)O[C@H]1OC=C[C@@]41O`: the mutagenic call was “active; positive” under setting [1], “active; positive” under setting [2], “active; positive” under setting [3] and “active; positive” under setting [4].
For `c1cc2c3c(c1)ccc1cccc(c13)C1OC21` (configuration not stated), the mutagenic call is “active; positive” (Test System: CHINESE HAMSTER OVARY, Strain/Indicator: CHO (HGPRT)/6-THIOGUANINE, Metabolic Activation: NONE, Method: STANDARD PLATE); “inactive; negative” (Test System: CHINESE HAMSTER OVARY, Strain/Indicator: CHO (HGPRT)/6-THIOGUANINE, Metabolic Activation: RAT, LIVER, S-9, AROCLOR 1254, Method: STANDARD PLATE); “active; positive” (Test System: UDS RODENT HEPATOCYTES, Strain/Indicator: THY INCORP, Metabolic Activation: NONE, Method: AUTORADIOGRAPHY).
Consider `CCCCBr`, for which the mutagenic call reads like this: (End Point: In vitro micronucleus, Test System: Chinese Hamster Ovary (CHO-WBL) cells, Metabolic Activation: None) “inactive; negative”; (Test System: AMES SALMONELLA TYPHIMURIUM, Strain/Indicator: TA100, Metabolic Activation: NONE, Method: DESICCATOR) “active; positive”; (Test System: AMES SALMONELLA TYPHIMURIUM, Strain/Indicator: TA100, Metabolic Activation: RAT, LIVER, S-9, AROCLOR 1254, Method: DESICCATOR) “active; positive”; (Test System: AMES SALMONELLA TYPHIMURIUM, Strain/Indicator: TA1535, Metabolic Activation: NONE, Method: DESICCATOR) “active; positive”; (Test System: AMES SALMONELLA TYPHIMURIUM, Strain/Indicator: TA1535, Metabolic Activation: RAT, LIVER, S-9, AROCLOR 1254, Method: DESICCATOR) “active; positive”.
Regarding `CC(CC(=O)O)C(=O)O` (configuration not stated), the mutagenic call runs as follows: (Test System: AMES SALMONELLA TYPHIMURIUM, Strain/Indicator: TA97, Metabolic Activation: HAMSTER, LIVER, S-9, AROCLOR 1254 (10%), Method: PREINCUBATION) “inactive; negative”; (Test System: AMES SALMONELLA TYPHIMURIUM, Strain/Indicator: TA97, Metabolic Activation: HAMSTER, LIVER, S-9, AROCLOR 1254 (30%), Method: PREINCUBATION) “inactive; negative”; (Test System: AMES SALMONELLA TYPHIMURIUM, Strain/Indicator: TA97, Metabolic Activation: NONE, Method: PREINCUBATION) “inactive; negative”; (Test System: AMES SALMONELLA TYPHIMURIUM, Strain/Indicator: TA97, Metabolic Activation: RAT, LIVER, S-9, AROCLOR 1254 (10%), Method: PREINCUBATION) “inactive; negative”; (Test System: AMES SALMONELLA TYPHIMURIUM, Strain/Indicator: TA97, Metabolic Activation: RAT, LIVER, S-9, AROCLOR 1254 (30%), Method: PREINCUBATION) “inactive; negative”; (Test System: AMES SALMONELLA TYPHIMURIUM, Strain/Indicator: TA98, Metabolic Activation: HAMSTER, LIVER, S-9, AROCLOR 1254 (10%), Method: PREINCUBATION) “inactive; negative”. In addition, the mutagenic call was “inactive; negative” (Test System: AMES SALMONELLA TYPHIMURIUM, Strain/Indicator: TA98, Metabolic Activation: HAMSTER, LIVER, S-9, AROCLOR 1254 (30%), Method: PREINCUBATION); “inactive; negative” (Test System: AMES SALMONELLA TYPHIMURIUM, Strain/Indicator: TA98, Metabolic Activation: NONE, Method: PREINCUBATION); “inactive; negative” (Test System: AMES SALMONELLA TYPHIMURIUM, Strain/Indicator: TA98, Metabolic Activation: RAT, LIVER, S-9, AROCLOR 1254 (10%), Method: PREINCUBATION); “inactive; negative” (Test System: AMES SALMONELLA TYPHIMURIUM, Strain/Indicator: TA98, Metabolic Activation: RAT, LIVER, S-9, AROCLOR 1254 (30%), Method: PREINCUBATION); “inactive; negative” (Test System: AMES SALMONELLA TYPHIMURIUM, Strain/Indicator: TA100, Metabolic Activation: HAMSTER, LIVER, S-9, AROCLOR 1254 (10%), Method: PREINCUBATION); “inactive; negative” (Test System: AMES SALMONELLA TYPHIMURIUM, Strain/Indicator: TA100, Metabolic Activation: HAMSTER, LIVER, S-9, AROCLOR 1254 (30%), Method: PREINCUBATION). In addition, the mutagenic call is “inactive; negative” (Test System: AMES SALMONELLA TYPHIMURIUM, Strain/Indicator: TA100, Metabolic Activation: NONE, Method: PREINCUBATION); “inactive; negative” (Test System: AMES SALMONELLA TYPHIMURIUM, Strain/Indicator: TA100, Metabolic Activation: RAT, LIVER, S-9, AROCLOR 1254 (10%), Method: PREINCUBATION); “inactive; negative” (Test System: AMES SALMONELLA TYPHIMURIUM, Strain/Indicator: TA100, Metabolic Activation: RAT, LIVER, S-9, AROCLOR 1254 (30%), Method: PREINCUBATION); “inactive; negative” (Test System: AMES SALMONELLA TYPHIMURIUM, Strain/Indicator: TA1535, Metabolic Activation: HAMSTER, LIVER, S-9, AROCLOR 1254 (10%), Method: PREINCUBATION); “inactive; negative” (Test System: AMES SALMONELLA TYPHIMURIUM, Strain/Indicator: TA1535, Metabolic Activation: HAMSTER, LIVER, S-9, AROCLOR 1254 (30%), Method: PREINCUBATION); “inactive; negative” (Test System: AMES SALMONELLA TYPHIMURIUM, Strain/Indicator: TA1535, Metabolic Activation: NONE, Method: PREINCUBATION). The mutagenic call reads like this: (Test System: AMES SALMONELLA TYPHIMURIUM, Strain/Indicator: TA1535, Metabolic Activation: RAT, LIVER, S-9, AROCLOR 1254 (10%), Method: PREINCUBATION) “inactive; negative”; (Test System: AMES SALMONELLA TYPHIMURIUM, Strain/Indicator: TA1535, Metabolic Activation: RAT, LIVER, S-9, AROCLOR 1254 (30%), Method: PREINCUBATION) “inactive; negative”; (Test System: AMES SALMONELLA TYPHIMURIUM, Strain/Indicator: TA1537, Metabolic Activation: HAMSTER, LIVER, S-9, AROCLOR 1254 (30%), Method: PREINCUBATION) “inactive; negative”; (Test System: AMES SALMONELLA TYPHIMURIUM, Strain/Indicator: TA1537, Metabolic Activation: NONE, Method: PREINCUBATION) “inactive; negative”; (Test System: AMES SALMONELLA TYPHIMURIUM, Strain/Indicator: TA1537, Metabolic Activation: RAT, LIVER, S-9, AROCLOR 1254 (30%), Method: PREINCUBATION) “inactive; negative”.
